How the values were obtained:
[1] = molecular target: MMP-13 catalytic domain (Homo sapiens, UniProt P45452); test: Thiopeptolide substrate hydrolysis inhibition assay, MMP-13 catalytic domain; type: biochemical; conditions: MMP-13 catalytic domain; read-out: MMP-13CD IC50
Excerpt: The methods described below for the inhibition of MMP-13 may also be adapted and used to determine the ability of the compounds of Formula I to inhibit other matrix metalloproteases such as MMP-1, MMP-2, MMP-3, MMP-7, MMP-8, MMP-9, MMP-12, MMP-14, MMP-17, and the like.
Thiopeptolide substrates show virtually no decomposition or hydrolysis at or below neutral pH in the absence of a matrix metalloproteinase enzyme. A typical thiopeptolide substrate commonly utilized for assays is Ac-Pro-Leu-Gly-thioester-Leu-Leu-Gly-OEt. A 100 μL assay mixture will contain 50 mM of N-2-hydroxyethylpiperazine-N′-2-ethanesulfonic acid buffer (“HEPES,” pH 7.0), 10 mM CaCl2, 100 μM thiopeptolide substrate, and 1 mM 5,5′-dithio-bis-(2-nitro-benzoic acid) (DTNB). […] Assays are carried out with and without matrix metalloproteinase inhibitor compounds, and the amount of hydrolysis is compared for a determination of inhibitory activity of the test compounds.

[2] = molecular target: T1, MMP-1 full-length (Homo sapiens, UniProt P03956); test: Thiopeptolide substrate hydrolysis inhibition assay, MMP-1 full-length; type: biochemical; conditions: full-length enzyme; read-out: MMP-1FL IC50
T1 construct: have also been assayed with MMP-1 full-length
T1 sequence (P03956 100-469): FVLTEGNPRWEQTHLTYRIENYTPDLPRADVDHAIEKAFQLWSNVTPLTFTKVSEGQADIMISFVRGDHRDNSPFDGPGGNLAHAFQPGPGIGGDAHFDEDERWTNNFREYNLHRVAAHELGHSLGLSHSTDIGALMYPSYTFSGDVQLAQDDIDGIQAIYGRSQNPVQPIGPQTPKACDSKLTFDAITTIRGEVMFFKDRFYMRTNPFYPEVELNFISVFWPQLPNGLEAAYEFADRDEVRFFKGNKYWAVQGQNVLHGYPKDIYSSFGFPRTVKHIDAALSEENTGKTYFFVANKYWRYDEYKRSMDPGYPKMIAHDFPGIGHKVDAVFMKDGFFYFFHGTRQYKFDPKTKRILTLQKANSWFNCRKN
Excerpt: (§1) The assay methods of Biological Examples 1-4 measure the amount by which a test compound reduces the hydrolysis of a thiopeptolide substrate catalyzed by a matrix metalloproteinase enzyme or catalytic domain thereof. It has been shown previously by Ye Qi-Zhuang, Hupe D., and Johnson L. (Current Medicinal Chemistry, 1996;3:407-418) that inhibitor activity against a catalytic domain of an MMP is predictive of the inhibitor activity against the respective full-length MMP enzyme. The methods described below for the inhibition of MMP-13 may also be adapted and used to determine the ability of the compounds of Formula I to inhibit other matrix metalloproteases such as MMP-1, MMP-2, MMP-3, MMP-7, MMP-8, MMP-9, MMP-12, MMP-14, MMP-17, and the like.
(§2) Thiopeptolide substrates show virtually no decomposition or hydrolysis at or below neutral pH in the absence of a matrix metalloproteinase enzyme. A typical thiopeptolide substrate commonly utilized for assays is Ac-Pro-Leu-Gly-thioester-Leu-Leu-Gly-OEt. A 100 μL assay mixture will contain 50 mM of N-2-hydroxyethylpiperazine-N′-2-ethanesulfonic acid buffer (“HEPES,” pH 7.0), 10 mM CaCl2, 100 μM thiopeptolide substrate, and 1 mM 5,5′-dithio-bis-(2-nitro-benzoic acid) (DTNB). […] The change in absorbance at 405 nm is monitored on a Thermo Max microplate reader (molecular Devices, Menlo Park, Calif.) at room temperature (22° C.). The calculation of the amount of hydrolysis of the thiopeptolide substrate is based on E412=13600 M^−1 cm^−1 for the DTNB-derived product 3-carboxy-4-nitrothiophenoxide. Assays are carried out with and without matrix metalloproteinase inhibitor compounds, and the amount of hydrolysis is compared for a determination of inhibitory activity of the test compounds.
(§3) Test compounds were evaluated at various concentrations in order to determine their respective IC50 values, the micromolar concentration of compound required to cause a 50% inhibition of catalytic activity of the respective enzyme.
(§4) Some representative compounds of Formula I have been evaluated for their ability to inhibit MMP-13, MMP-1FL, MMP-3CD, MMP-7FL, MMP-8FL, MMP-9FL, MMP-12CD, MMP-14CD, and/or MMP-17CD, wherein FL means full-length enzyme and CD means a catalytic domain of the full-length enzyme. Test compounds can be evaluated at various concentrations in order to determine their respective IC50 values, the micromolar concentration of compound required to cause a 50% inhibition of the hydrolytic activity of the respective enzyme.
(§5) Certain compounds of Formula I have also been assayed with MMP-1 full-length, MMP-3 catalytic domain, MMP-7 full-length, MMP-8 full-length, MMP-9 full-length, MMP-12 catalytic domain, MMP-14 catalytic domain, and MMP-17 catalytic domain. […] In Biological Table 2, the compound example numbers for the Compound Examples are indicated in the column labelled “Ex. No.”

[3] = molecular target: T2, MMP-8 full-length (Homo sapiens, UniProt P22894); test: Thiopeptolide substrate hydrolysis inhibition assay, MMP-8 full-length; type: biochemical; conditions: full-length enzyme; read-out: MMP-8FL IC50
T2 construct: MMP-7 full-length, MMP-8 full-length, MMP-9 full-length
Excerpt: as §1, §2, §3, §4, §5

[4] = molecular target: T3, MMP-9 full-length (Homo sapiens, UniProt P14780); test: Thiopeptolide substrate hydrolysis inhibition assay, MMP-9 full-length; type: biochemical; conditions: full-length enzyme; read-out: MMP-9FL IC50
T3 construct: MMP-8 full-length, MMP-9 full-length, MMP-12 catalytic domain
Excerpt: as §1, §2, §3, §4, §5

[5] = molecular target: T4, MMP-14 catalytic domain (Homo sapiens, UniProt P50281); test: Thiopeptolide substrate hydrolysis inhibition assay, MMP-14 catalytic domain; type: biochemical; conditions: read-out: MMP-14CD IC50
T4 construct: MMP-14 catalytic domain, and MMP-17 catalytic domain
Excerpt: as §1, §2, §3, §4, §5

[6] = Pharmacokinetics in Sprague-Dawley rats (single IV or oral dose); type: in vivo, rat
Excerpt: For comparison purposes, a reference compound was separately characterized according to its pharmacokinetics properties except AUC in a similar manner. The reference compound (“Reference Compound 1”) was the compound of Example 188 of PCT International Patent Application Publication number WO 02/064572 A1, which is also described in PCT International Patent Application Publication number WO 02/064080 A2 in Table IVb on page 76, 5th species from the top. […] Reference Compound 1 is named 4-[6-(4-methoxy-benzylcarbamoyl)- 1 -methyl-2,4-dioxo- 1,4-dihydro-2H-pyrido[3,4-d]pyrimidin-3-ylmethyl]-benzoic acid, and has the structure drawn below: [drawing 98]

T2 sequence (P22894 101-467): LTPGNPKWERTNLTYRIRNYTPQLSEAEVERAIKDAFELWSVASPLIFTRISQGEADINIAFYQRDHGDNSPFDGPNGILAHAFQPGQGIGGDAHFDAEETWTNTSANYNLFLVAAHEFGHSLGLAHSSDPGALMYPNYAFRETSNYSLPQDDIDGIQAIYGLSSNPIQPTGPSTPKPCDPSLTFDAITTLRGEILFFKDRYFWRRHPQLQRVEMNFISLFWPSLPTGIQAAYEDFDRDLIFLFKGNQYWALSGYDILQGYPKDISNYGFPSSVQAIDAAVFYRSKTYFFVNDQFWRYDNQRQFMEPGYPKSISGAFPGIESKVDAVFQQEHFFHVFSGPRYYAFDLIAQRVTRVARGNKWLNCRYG
T3 sequence (P14780 94-707): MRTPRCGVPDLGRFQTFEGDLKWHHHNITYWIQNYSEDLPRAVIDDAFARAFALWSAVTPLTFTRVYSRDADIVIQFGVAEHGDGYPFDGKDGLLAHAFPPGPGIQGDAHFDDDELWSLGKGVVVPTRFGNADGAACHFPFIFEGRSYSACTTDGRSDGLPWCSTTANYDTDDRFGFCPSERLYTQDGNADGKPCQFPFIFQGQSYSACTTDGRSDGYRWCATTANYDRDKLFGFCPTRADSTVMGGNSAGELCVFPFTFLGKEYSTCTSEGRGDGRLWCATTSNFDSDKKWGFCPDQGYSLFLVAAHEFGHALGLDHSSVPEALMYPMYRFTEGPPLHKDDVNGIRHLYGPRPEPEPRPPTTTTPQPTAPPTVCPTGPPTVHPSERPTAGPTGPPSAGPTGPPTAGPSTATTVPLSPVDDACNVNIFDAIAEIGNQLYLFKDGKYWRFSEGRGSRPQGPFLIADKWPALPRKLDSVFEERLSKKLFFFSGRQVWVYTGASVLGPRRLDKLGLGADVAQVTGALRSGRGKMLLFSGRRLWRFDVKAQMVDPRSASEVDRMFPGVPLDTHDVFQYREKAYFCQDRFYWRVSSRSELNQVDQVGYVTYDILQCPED

IC50 [1]: 0.0077 µM
IC50 [2]: > 100 µM
IC50 [3]: > 100 µM
IC50 [4]: > 100 µM
IC50 [5]: > 100 µM
clearance ([6]; rat, blood, Sprague-Dawley rats, single 5 mg/kg intravenous dose, read-out: IV CL): 0.426 L/h/kg
half-life ([6]; rat, blood, Sprague-Dawley rats, single 5 mg/kg intravenous dose, read-out: IV T1/2 (converted)): 2.1 h
PO AUC (ng/hr/mL) ([6]; rats, single 5 mg/kg oral dose): 3,750 ng/hr/mL
Structure (SMILES): COc1ccc(CNC(=O)c2cc3c(=O)n(Cc4ccc(C(=O)O)cc4)cnc3cn2)cc1 [Compound Example 1, 4-[6-(4-methoxy-benzylcarbamoyl)-4-oxo-4H-pyrido[3,4-d]pyrimidin-3-ylmethyl]-benzoic acid]

Source: US20050085447A1, “Pyrido[3,4-d]pyrimidine derivatives as matrix metalloproteinase-13 inhibitors” (Warner-Lambert Company LLC, priority 2003, published 2005)
